Data: ChEMBL document CHEMBL4334533, “Design, synthesis, and validation of novel nitrogen-based chalcone analogs against triple negative breast cancer” (Eur J Med Chem, 2020)
Activity calls are given as the source filed them. The rule behind the calls is not given here.

Legend:
Chorioallantoic membrane = assay: Antiangiogenic activity in Leghorn chicken fertilized egg chorioallantoic membrane assessed as reduction in number of blood vessels at 4 ug measured after 4 days by microscopic analysis; type: functional, tissue-based; conditions: Gallus gallus
MDA-MB-231 [1] = assay: Antimigratory activity in human MDA-MB-231 cells assessed as inhibition of cell motility after 24 hrs by microscopic analysis; type: functional, cell-based; conditions: MDA-MB-231, 24 h
MDA-MB-231 [2] = assay: Antimigratory activity in human MDA-MB-231 cells assessed as wound diameter at 5 uM measured after 24 hrs by microscopic analysis; type: functional, cell-based
MDA-MB-231 [3] = assay: Inhibition of anchorage-independent colony formation in human MDA-MB-231 cells at 5 uM measured upto 21 days by soft agar colony formation assay; type: functional, cell-based
MCF7 = assay: Inhibition of anchorage-independent colony formation in human MCF7 cells at 5 uM measured upto 21 days by soft agar colony formation assay; type: functional, cell-based
MDA-MB-468 = assay: Inhibition of anchorage-independent colony formation in human MDA-MB-468 cells at 5 uM measured upto 21 days by soft agar colony formation assay; type: functional, cell-based

Structure (SMILES)	Activity (Chorioallantoic membrane)	IC50 (MDA-MB-231 [1])	Activity (MDA-MB-231 [2])	inhibition (MDA-MB-231 [3])	colony formation inhibition (activity call) (MCF7)	colony formation inhibition (active/inactive) (MDA-MB-468)
CSc1ccc(C(=O)/C=C/c2ccc(N3CCOCC3)cc2)cc1	Active	4.8 µM	Active			
CC(=O)O[C@H]1C(=O)[C@@]2(C)[C@H]([C@H](OC(=O)c3ccccc3)[C@]3(O)C[C@H](OC(=O)[C@H](O)[C@@H](NC(=O)c4ccccc4)c4ccccc4)C(C)=C1C3(C)C)[C@]1(OC(C)=O)CO[C@@H]1C[C@@H]2O [PACLITAXEL]		2.01 µM	Active	Active	Active	Active
